Results: ChEMBL document CHEMBL4800722, “Data for DCP probe BI 605906” (2021)

Columns and labels:
[1] = target: GABA B receptor (Rattus norvegicus) (UniProt Q9Z0U4+O88871); assay: GABAB/RA Eurofins SafetyScreen44 (BI); format: protein-complex assay; details: Compound concentration 10.0 uM
[2] = target: Wee1-like protein kinase (Homo sapiens) (UniProt P30291); details: Compound concentration 1.0 uM
[3] = target: RAC-beta serine/threonine-protein kinase (Homo sapiens) (UniProt P31751); details: Compound concentration 1.0 uM
[4] = target: ALK tyrosine kinase receptor (Homo sapiens) (UniProt Q9UM73); assay: ALK Invitrogen Lab (UK) kinase screen (BI)
Chain of ALK tyrosine kinase receptor (Homo sapiens) (Q9UM73 19-1620 limits assumed): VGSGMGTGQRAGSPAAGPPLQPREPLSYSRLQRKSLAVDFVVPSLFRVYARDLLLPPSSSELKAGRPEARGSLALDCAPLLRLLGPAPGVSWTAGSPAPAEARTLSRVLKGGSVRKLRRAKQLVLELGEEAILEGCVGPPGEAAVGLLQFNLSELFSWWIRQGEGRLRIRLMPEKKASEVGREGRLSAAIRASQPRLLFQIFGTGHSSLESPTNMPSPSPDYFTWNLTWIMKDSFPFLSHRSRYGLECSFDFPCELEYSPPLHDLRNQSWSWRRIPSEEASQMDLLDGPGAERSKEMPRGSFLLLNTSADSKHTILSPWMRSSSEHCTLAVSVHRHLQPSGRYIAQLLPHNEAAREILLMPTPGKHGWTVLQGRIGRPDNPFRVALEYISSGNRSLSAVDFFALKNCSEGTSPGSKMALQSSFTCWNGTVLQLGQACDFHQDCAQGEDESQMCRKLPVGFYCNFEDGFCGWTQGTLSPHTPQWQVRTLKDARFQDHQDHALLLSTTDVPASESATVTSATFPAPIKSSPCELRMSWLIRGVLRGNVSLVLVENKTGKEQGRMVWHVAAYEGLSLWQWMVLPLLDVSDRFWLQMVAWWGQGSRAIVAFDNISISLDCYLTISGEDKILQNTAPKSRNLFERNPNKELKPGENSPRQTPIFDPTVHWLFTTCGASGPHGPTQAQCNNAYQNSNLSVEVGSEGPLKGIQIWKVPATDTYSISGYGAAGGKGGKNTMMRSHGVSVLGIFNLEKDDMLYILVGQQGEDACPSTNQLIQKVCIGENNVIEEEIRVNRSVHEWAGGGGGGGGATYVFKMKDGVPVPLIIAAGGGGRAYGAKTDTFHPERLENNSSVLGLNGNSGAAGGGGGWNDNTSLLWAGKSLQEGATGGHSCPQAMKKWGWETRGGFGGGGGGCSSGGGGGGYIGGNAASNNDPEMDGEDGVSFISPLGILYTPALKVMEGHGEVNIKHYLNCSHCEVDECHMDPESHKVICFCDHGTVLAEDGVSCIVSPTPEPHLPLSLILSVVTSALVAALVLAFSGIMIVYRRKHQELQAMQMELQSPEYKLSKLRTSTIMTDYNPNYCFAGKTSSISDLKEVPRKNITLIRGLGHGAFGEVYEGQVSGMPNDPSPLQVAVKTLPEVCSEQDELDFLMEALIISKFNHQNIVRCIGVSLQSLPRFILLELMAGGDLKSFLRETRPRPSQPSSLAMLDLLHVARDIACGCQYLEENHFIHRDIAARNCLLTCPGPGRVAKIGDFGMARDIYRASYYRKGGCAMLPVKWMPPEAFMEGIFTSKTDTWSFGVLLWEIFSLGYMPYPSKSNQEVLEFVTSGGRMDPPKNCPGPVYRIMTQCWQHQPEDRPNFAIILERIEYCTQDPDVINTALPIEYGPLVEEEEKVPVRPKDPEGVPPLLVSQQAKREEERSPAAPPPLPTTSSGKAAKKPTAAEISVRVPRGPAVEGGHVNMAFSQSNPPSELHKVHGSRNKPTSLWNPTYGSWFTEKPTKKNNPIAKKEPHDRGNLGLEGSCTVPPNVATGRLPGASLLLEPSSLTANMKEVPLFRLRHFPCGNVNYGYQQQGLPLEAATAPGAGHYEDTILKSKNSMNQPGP

[5] = target: Prostaglandin G/H synthase 2 (Homo sapiens) (UniProt P35354); details: Compound concentration 10.0 uM
[6] = target: B1 bradykinin receptor (Homo sapiens) (UniProt P46663)
Chain of B1 bradykinin receptor (Homo sapiens) (P46663 whole entry): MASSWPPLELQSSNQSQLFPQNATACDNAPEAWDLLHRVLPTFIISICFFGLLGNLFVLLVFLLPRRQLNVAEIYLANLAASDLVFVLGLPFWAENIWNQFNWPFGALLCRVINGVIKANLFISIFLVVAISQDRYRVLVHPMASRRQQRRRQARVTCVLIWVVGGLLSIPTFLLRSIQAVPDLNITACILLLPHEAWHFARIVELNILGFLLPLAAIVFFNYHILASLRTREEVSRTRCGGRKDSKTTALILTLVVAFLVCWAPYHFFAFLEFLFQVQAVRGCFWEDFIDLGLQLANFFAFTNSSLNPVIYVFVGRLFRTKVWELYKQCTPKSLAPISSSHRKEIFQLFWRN

[7] = target: Protein kinase C delta type (Homo sapiens) (UniProt Q05655); details: Compound concentration 1.0 uM
[8] = target: Mitogen-activated protein kinase kinase kinase 10 (Homo sapiens) (UniProt Q02779); details: Compound concentration 1.0 uM
[9] = target: Mitogen-activated protein kinase 10 (Homo sapiens) (UniProt P53779); details: Compound concentration 1.0 uM
[10] = target: Serine/threonine-protein kinase NIM1 (Homo sapiens) (UniProt Q8IY84); details: Compound concentration 1.0 uM
[11] = target: Serine/threonine-protein kinase WNK2 (Homo sapiens) (UniProt Q9Y3S1); assay: WNK2 Invitrogen Lab (UK) kinase screen (BI); details: Compound concentration 1.0 uM
[12] = target: Serine/threonine-protein kinase TAO2 (Homo sapiens) (UniProt Q9UL54); details: Compound concentration 1.0 uM
[13] = target: Casein kinase I isoform alpha (Homo sapiens) (UniProt P48729); details: Compound concentration 1.0 uM
Chain of Casein kinase I isoform alpha (Homo sapiens) (P48729 2-337 limits assumed): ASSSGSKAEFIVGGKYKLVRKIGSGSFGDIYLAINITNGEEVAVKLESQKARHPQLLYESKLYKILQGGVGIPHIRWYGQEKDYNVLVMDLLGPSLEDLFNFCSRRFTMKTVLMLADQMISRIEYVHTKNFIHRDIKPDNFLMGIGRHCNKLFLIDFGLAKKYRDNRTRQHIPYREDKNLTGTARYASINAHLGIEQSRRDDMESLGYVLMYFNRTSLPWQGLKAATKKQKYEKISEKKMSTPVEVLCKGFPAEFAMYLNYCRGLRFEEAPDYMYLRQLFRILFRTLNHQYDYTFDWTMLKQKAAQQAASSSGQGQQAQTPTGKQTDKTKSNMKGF

Renin (Homo sapiens) = Renin (Homo sapiens) (UniProt P00797); details: Compound concentration 10.0 uM
[14] = target: Receptor tyrosine-protein kinase erbB-2 (Homo sapiens) (UniProt P04626)
Chain of Receptor tyrosine-protein kinase erbB-2 (Homo sapiens) (P04626 whole entry): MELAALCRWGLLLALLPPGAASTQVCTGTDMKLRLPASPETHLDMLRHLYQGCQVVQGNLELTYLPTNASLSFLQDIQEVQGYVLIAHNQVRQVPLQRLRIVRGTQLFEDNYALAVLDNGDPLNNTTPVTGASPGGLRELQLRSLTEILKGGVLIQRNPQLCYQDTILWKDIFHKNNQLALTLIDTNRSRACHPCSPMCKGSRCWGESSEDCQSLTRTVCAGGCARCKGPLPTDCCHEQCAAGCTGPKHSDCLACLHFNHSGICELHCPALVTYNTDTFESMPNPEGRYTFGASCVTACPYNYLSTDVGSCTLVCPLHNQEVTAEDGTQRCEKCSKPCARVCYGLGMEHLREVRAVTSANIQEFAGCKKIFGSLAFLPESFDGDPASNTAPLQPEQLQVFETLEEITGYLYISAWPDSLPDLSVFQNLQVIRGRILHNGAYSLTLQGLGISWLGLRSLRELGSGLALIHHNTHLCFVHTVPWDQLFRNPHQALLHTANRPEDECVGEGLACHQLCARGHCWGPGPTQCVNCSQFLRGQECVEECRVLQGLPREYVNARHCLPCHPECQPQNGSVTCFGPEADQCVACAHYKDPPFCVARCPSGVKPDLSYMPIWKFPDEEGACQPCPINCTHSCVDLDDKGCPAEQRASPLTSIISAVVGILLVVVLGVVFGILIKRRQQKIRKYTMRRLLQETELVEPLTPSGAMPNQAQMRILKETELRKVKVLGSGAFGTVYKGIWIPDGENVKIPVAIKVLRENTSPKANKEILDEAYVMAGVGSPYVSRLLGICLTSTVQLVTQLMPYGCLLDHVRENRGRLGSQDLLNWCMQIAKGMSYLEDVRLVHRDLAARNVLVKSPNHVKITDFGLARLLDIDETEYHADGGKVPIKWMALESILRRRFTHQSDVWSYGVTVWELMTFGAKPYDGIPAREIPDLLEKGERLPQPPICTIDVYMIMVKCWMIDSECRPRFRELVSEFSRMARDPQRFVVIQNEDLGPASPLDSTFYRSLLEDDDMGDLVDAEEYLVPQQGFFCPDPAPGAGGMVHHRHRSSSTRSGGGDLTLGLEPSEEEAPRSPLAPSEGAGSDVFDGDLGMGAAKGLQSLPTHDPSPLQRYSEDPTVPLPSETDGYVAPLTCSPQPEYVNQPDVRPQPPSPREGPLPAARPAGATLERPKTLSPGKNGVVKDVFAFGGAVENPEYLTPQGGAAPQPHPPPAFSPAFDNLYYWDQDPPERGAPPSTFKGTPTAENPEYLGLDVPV

[15] = target: Serotonin 2 (5-HT2) receptor (Rattus norvegicus) (UniProt P30994+P08909+P14842)
[16] = target: NT-3 growth factor receptor (Homo sapiens) (UniProt Q16288); assay: NTRK3 Invitrogen Lab (UK) kinase screen (BI); details: Compound concentration 1.0 uM
[17] = target: CDK17/Cyclin-Y (Homo sapiens) (UniProt Q00537+Q8ND76); assay: CDK17/CYCLIN Y Invitrogen Lab (UK) kinase screen (BI); format: protein-complex assay; details: Compound concentration 1.0 uM
[18] = target: Urotensin-2 receptor (Homo sapiens) (UniProt Q9UKP6); assay: UROTENSIN_II Eurofins SafetyScreen44 (BI); details: Compound concentration 10.0 uM
[19] = target: Voltage-dependent L-type calcium channel subunit alpha-1C (CA+/PAASITE) (Rattus norvegicus, UniProt P22002); assay: CA+/PAASITE Eurofins SafetyScreen44 (BI); details: read-out: % Ctrl
[20] = target: D(3) dopamine receptor (Homo sapiens) (UniProt P35462); details: Compound concentration 10.0 uM
[21] = target: Homeodomain-interacting protein kinase 1 (Homo sapiens) (UniProt Q86Z02); details: Compound concentration 1.0 uM
[22] = target: Mitogen-activated protein kinase 8 (Homo sapiens) (UniProt P45983)
[23] = target: Tyrosine-protein kinase Fgr (Homo sapiens) (UniProt P09769); assay: FGR Invitrogen Lab (UK) kinase screen (BI); details: Compound concentration 1.0 uM
[24] = target: Leukocyte tyrosine kinase receptor (Homo sapiens) (UniProt P29376); details: Compound concentration 1.0 uM
[25] = target: Serine/threonine-protein kinase pim-2 (Homo sapiens) (UniProt Q9P1W9); details: Compound concentration 1.0 uM
[26] = target: Mitogen-activated protein kinase 14 (Homo sapiens) (UniProt Q16539); details: Compound concentration 1.0 uM
[27] = target: MAP kinase-interacting serine/threonine-protein kinase 2 (Homo sapiens) (UniProt Q9HBH9); assay: MKNK2 (MNK2) Invitrogen Lab (UK) kinase screen (BI); details: Compound concentration 1.0 uM
[28] = target: Receptor-type tyrosine-protein kinase FLT3 (Homo sapiens) (UniProt P36888)
Chain of Receptor-type tyrosine-protein kinase FLT3 (Homo sapiens) (P36888 whole entry): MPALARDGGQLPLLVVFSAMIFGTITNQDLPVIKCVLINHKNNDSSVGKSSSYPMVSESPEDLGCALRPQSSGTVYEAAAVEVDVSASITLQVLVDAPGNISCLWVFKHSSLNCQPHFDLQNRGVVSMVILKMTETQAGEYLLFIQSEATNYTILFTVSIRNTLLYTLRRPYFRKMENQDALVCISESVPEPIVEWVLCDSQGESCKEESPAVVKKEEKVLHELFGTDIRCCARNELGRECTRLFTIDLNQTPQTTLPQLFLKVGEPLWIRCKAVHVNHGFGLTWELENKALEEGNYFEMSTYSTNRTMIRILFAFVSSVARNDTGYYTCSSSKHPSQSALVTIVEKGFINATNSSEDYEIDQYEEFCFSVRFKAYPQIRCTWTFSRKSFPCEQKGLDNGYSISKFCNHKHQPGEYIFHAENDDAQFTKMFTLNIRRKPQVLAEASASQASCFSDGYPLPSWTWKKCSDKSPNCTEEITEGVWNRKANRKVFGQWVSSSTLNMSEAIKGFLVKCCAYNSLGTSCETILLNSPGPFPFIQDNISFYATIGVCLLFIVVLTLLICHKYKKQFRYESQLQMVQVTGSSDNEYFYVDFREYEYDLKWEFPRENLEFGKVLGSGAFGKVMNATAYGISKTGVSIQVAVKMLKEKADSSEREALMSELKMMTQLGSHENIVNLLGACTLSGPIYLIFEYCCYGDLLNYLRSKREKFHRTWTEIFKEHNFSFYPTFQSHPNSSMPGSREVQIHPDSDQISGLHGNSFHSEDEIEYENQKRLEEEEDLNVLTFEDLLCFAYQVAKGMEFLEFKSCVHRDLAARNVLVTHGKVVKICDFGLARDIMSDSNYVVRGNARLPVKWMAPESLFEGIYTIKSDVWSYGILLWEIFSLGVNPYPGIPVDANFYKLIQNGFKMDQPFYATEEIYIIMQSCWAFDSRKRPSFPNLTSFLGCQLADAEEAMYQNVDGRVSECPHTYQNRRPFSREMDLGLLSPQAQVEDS

[29] = target: Beta-adrenergic receptor kinase 1 (Homo sapiens) (UniProt P25098); details: Compound concentration 1.0 uM
[30] = tested on: Serine/threonine-protein kinase B-raf (Homo sapiens), P15056 [V600E]; assay: BRAF V599E Invitrogen Lab (UK) kinase screen (BI); details: Compound concentration 10.0 uM
[31] = target: D(1A) dopamine receptor (Homo sapiens) (UniProt P21728); details: Compound concentration 10.0 uM
[32] = target: 3-phosphoinositide-dependent protein kinase 1 (Homo sapiens) (UniProt O15530)
Chain of 3-phosphoinositide-dependent protein kinase 1 (Homo sapiens) (O15530 whole entry, looked up): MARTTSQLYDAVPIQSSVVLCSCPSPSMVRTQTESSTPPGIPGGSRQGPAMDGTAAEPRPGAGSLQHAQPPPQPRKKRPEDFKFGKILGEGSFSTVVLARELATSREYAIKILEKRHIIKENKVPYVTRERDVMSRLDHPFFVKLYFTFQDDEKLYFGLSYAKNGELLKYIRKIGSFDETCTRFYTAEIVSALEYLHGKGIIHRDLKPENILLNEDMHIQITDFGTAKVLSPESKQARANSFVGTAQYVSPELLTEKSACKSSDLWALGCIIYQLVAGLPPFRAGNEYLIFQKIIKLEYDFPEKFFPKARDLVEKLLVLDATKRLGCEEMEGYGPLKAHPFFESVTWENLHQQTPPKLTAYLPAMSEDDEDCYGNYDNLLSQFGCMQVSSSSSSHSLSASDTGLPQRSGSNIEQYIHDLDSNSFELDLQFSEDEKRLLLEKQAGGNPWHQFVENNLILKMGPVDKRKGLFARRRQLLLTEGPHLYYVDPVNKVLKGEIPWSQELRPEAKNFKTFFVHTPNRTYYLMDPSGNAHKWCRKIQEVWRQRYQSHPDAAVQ

[33] = target: Homeodomain-interacting protein kinase 4 (Homo sapiens) (UniProt Q8NE63); assay: HIPK4 Invitrogen Lab (UK) kinase screen (BI); details: Compound concentration 1.0 uM
[34] = target: Dual specificity protein kinase CLK3 (Homo sapiens) (UniProt P49761); assay: CLK3 Invitrogen Lab (UK) kinase screen (BI); details: Compound concentration 1.0 uM
[35] = target: Muscarinic acetylcholine receptor M1 (Homo sapiens) (UniProt P11229); details: Compound concentration 10.0 uM
[36] = target: Phospholipase A2 (Sus scrofa) (UniProt A0A8D1VEY7); details: Compound concentration 10.0 uM
[37] = target: Endothelin-converting enzyme 1 (Homo sapiens) (UniProt P42892); details: Compound concentration 10.0 uM
[38] = target: Mitogen-activated protein kinase 15 (Homo sapiens) (UniProt Q8TD08); assay: ERK8 DUNDEE kinase screen (BI); details: Compound concentration 10.0 uM
[39] = target: Cyclin-dependent kinase-like 5 (Homo sapiens) (UniProt O76039); assay: CDKL5 Invitrogen Lab (UK) kinase screen (BI); details: Compound concentration 1.0 uM
[40] = target: Serine/threonine-protein kinase NLK (Homo sapiens) (UniProt Q9UBE8); details: Compound concentration 1.0 uM
[41] = target: Myosin light chain kinase, smooth muscle (Homo sapiens) (UniProt Q15746); details: Compound concentration 1.0 uM
[42] = target: Sodium-dependent serotonin transporter (Homo sapiens) (UniProt P31645); details: Compound concentration 10.0 uM
[43] = Compound concentration 100.0 uM

## CCC(F)(F)c1cc(N2CCC(S(C)(=O)=O)CC2)nc2sc(C(N)=O)c(N)c12 [BI-605906]
[1]
  residual activity: 113%
[2]
  residual activity: 82%
[3]
  residual activity: 95%
[4]; Compound concentration 1.0 uM
  residual activity: 80%
[4]; Compound concentration 10.0 uM
  residual activity: 74%
[5]
  residual activity: 82%
[6]; Compound concentration 10.0 uM
  residual activity: 93%
[6]; [43]
  residual activity: 108%
[7]
  residual activity: 109%
[8]
  residual activity: 98%
[9]
  residual activity: 101%
[10]
  residual activity: 93%
[11]
  residual activity: 86%
[12]
  residual activity: 101%
[13]
  residual activity: 98%
Renin (Homo sapiens)
  residual activity: 100%
[14]; Compound concentration 1.0 uM
  residual activity: 96%
[14]; Compound concentration 10.0 uM
  residual activity: 86%
[15]; Compound concentration 10.0 uM
  residual activity: 97%
[15]; [43]
  residual activity: 95%
[16]
  residual activity: 84%
[17]
  residual activity: 88%
[18]
  residual activity: 107%
[19]; compound concentration 10 uM
  activity at 10 µM: 99% (not active)
[19]; compound concentration 100 uM
  activity at 100 µM: 70% (not active)
[20]
  inhibition: 51.5%
[21]
  residual activity: 101%
[22]; Compound concentration 1.0 uM
  residual activity: 91%
[22]; Compound concentration 10.0 uM
  residual activity: 100%
[23]
  residual activity: 78%
[24]
  residual activity: 99%
[25]
  residual activity: 99%
[26]
  residual activity: 89%
[27]
  residual activity: 68%
[28]; Compound concentration 1.0 uM
  residual activity: 71%
[28]; Compound concentration 10.0 uM
  residual activity: 38%
[29]
  residual activity: 95%
[30]
  residual activity: 34%
[31]
  residual activity: 101%
[32]; Compound concentration 1.0 uM
  residual activity: 89%
[32]; Compound concentration 10.0 uM
  residual activity: 101%
[33]
  residual activity: 77%
[34]
  residual activity: 102%
[35]
  inhibition: 8.33%
[36]
  residual activity: 96%
[37]
  residual activity: 82%
[38]
  residual activity: 63.2%
[39]
  residual activity: 103%
[40]
  residual activity: 93%
[41]
  residual activity: 91%
[42]
  residual activity: 108%
